From patent US20170306409A1, “CANCER PATIENT SELECTION FOR ADMINISTRATION OF WNT SIGNALING INHIBITORS USING RNF43 MUTATION STATUS” (NOVARTIS AG, priority 2012, published 2017)

Key:
Type in all cases: cell-based, human
[1] = system: BXPC3; test: cell line proliferation assay (Cell Titer Glo)
Experimental: (§1) The sensitivity of pancreatic cells to LGK974 treatment were tested in a cellular proliferation assay in vitro. Twenty four human pancreatic cancer cell lines were treated with or without LGK974. Cellular proliferation data was generated in 384 well format. Cells were harvested and resuspended in their appropriate growth medium at a density of 1.5×10^4 cells per mL. […] Plates were then transferred to incubators on the ACP-1 system (37° C., 5% CO2) and cells were allowed to attach overnight. […] Following compound addition, plates were returned to the incubator for 120 hours. The assay plates were read with the addition of 10 μL of 1× Cell Titer Glo (Promega G7573) according to the manufacturer's instructions. Plates were then incubated at room temperature for ten minutes and read on the integrated Perkin Elmer Viewlux (2 second exposure, 2× bin, high sensitivity). The raw data was normalized using the DMSO control wells within each plate and the curve fitting for IC50 determination was performed. Cell growth was measured five days later with Cell Titer Glo (Promega). […] As shown in TABLE 4 and Example 4, all four cell lines harbor RNF43 loss-of-function (LOF) mutations

[2] = system: KP-2; test: cell line proliferation assay (Cell Titer Glo)
Experimental: as §1

[3] = system: HUP-T3; test: cell line proliferation assay (Cell Titer Glo)
Experimental: as §1

[4] = system: YAPC; test: cell line proliferation assay (Cell Titer Glo)
Experimental: as §1

[5] = system: Capan-2; test: cell line proliferation assay (Cell Titer Glo)
Experimental: as §1

[6] = system: KP-1N; test: cell line proliferation assay (Cell Titer Glo)
Experimental: as §1

[7] = system: SW1990; test: cell line proliferation assay (Cell Titer Glo)
Experimental: as §1

[8] = system: SU8686; test: cell line proliferation assay (Cell Titer Glo)
Experimental: as §1

[9] = system: Panc1; test: cell line proliferation assay (Cell Titer Glo)
Experimental: as §1

[10] = system: PA-TU-8902; test: cell line proliferation assay (Cell Titer Glo)
Experimental: as §1

[11] = system: PK-59; test: cell line proliferation assay (Cell Titer Glo)
Experimental: as §1

[12] = system: TCC-PAN2; test: pathway inhibition by LGK974 (Table 4)
[13] = system: PaTu-8988S; test: soft agar assay; conditions: 1 μM LGK974
Experimental: (§2) Further, LGK974 induced the expression of differentiation marker MUC2, MUC5A/C in RNF43 mutant cells. LGK974 blocked EDU incorporation in RNF43 mutant cell lines, so Wnt inhibition in these cells leads to cell cycle arrest. LGK974-induced growth inhibition and cellular differentiation of RNF43 mutant cells are also obvious using Ki67 staining (anti-Ki67 (SP6) from Vector Laboratories, Burlingame, Calif., USA 94010) and Alcian Blue staining.
(§3) For soft agar assay, cells were suspended in 250 μl of 0.3% low melting agarose (Lonza) in DMEM containing 10% FBS, and plated onto 250 μl of solidified 0.8% agarose containing DMEM in 48-well culture plates at a density of 5,000-10,000 cells per well. 250 μl of growth medium were added on top of the cells after plate was cooled at Rt for 30 minutes. The plate was then incubated at 37° C. in a humidified atmosphere containing 5% CO2. The cells were treated with fresh growth medium containing DMSO or 1 μM LGK974 every 3-4 days. When colonies reached desirable size, photographs were taken and colonies were stained with AlamarBlue (from Invitrogen, Life Technologies, Grand Island, N.Y., USA 14072) according to the manufacturer's instruction. These experiments were repeated three times, and at least four wells were replicated each time for each condition.

[14] = system: PK1; test: soft agar assay; conditions: 1 μM LGK974
Experimental: as §2, §3

[15] = system: HPAFII; test: soft agar assay; conditions: 1 μM LGK974
Experimental: as §2, §3

[16] = system: Axin2, YAPC; test: Axin2 qPCR assay (pathway inhibition)
Experimental: For reverse transcription and quantitative PCR (qPCR), total RNA was extracted from cells or tumors using the RNeasy Plus Mini Kit (Qiagen). 1 μg of RNA were reverse transcribed with Taqman Reverse Transcription Reagents (Applied Biosystems) according to the manufacturer's instruction. Quantitative PCR was performed in 12 μl reactions consisting of 0.6 μl of 20× Taqman probe and PCR primer mix, 6 μl 2× Taqman FAST Advanced Master Mix (Applied Biosystems), and 5.4 μl diluted cDNA template. The thermocycling conditions utilized were 20 seconds at 95° C., followed by 40 cycles of 1 second at 95° C. and 20 seconds at 60° C. All experiments were performed in quadruplicates. Gene expression analysis was performed using the comparative ΔΔCT method and normalized with the housekeeping gene GUSB or 18S. The Taqman probes were purchased from Applied Biosystems.
Consistent with this observation, treatment of Porcupine inhibitor IWP2 or LGK974 increased the cell surface level of Frizzled and decreased the mRNA levels of AXIN2 and RNF43. See, FIG. 4(b). […] YAPC cells were treated with 3 μM of IWP-2 or 1 μM of LGK974, and subjected to flowcytometry analysis for membrane Frizzled expression.

[17] = system: PK1; test: cell colony formation assay (FIG. 1); conditions: PK1 (RNF43 wild-type); 1 μM LGK974; 10 day assay
Experimental: (§4) FIG. 1(a) is a photograph showing a HPAFII cell colony formation assay in the presence of LGK974 at two concentrations (300 nM and 1 μM). 1300 cells were seeded into media with indicated treatment and the media were replaced every 5 days until crystal violet staining at day 14. […] FIG. 1(b) is a photograph showing PK1 (having a functional RNF43 protein) and HPAFII (having a nonfunctional RNF43 protein) cell colony formation assays in the presence of 1 μM LGK974 alone or together with daily addition of 10% Wnt3a conditioned media (CM).

[18] = system: HPAFII cells; test: cell colony formation assay (FIG. 1)
Experimental: as §4

[19] = Homo sapiens, 120 hours, Cell Titer Glo, read-out: LGK974 IC50s in cell line proliferation assay

## Cc1cc(-c2ncc(CC(=O)Nc3ccc(-c4cnccn4)cn3)cc2C)ccn1 [LGK974, 2-[5-methyl-6-(2-methylpyridin-4-yl)pyridin-3-yl]-N-[5-(pyrazin-2-yl)pyridin-2-yl]acetamide]
[1]; BxPC3
  Inhibition fold change (1-Treated/Control): 0.01
[1]; Homo sapiens, BXPC-3, BXPC3, 120 hours, Cell Titer Glo, read-out: LGK974 IC50s in cell line proliferation assay
  IC50: > 2000 nM
[2]
  Inhibition fold change (1-Treated/Control): 0.06
[2]; [19]
  IC50: > 2000 nM
[3]
  Inhibition fold change (1-Treated/Control): 0.07
[3]; [19]
  IC50: > 2000 nM
[4]
  Inhibition fold change (1-Treated/Control): 0.20
[4]; [19]
  IC50: > 2000 nM
[5]
  Inhibition fold change (1-Treated/Control): 0.40
[5]; [19]
  IC50: 1.8 nM
[6]
  Inhibition fold change (1-Treated/Control): 0.01
[6]; [19]
  IC50: > 2000 nM
[7]
  Inhibition fold change (1-Treated/Control): 0.03
[7]; [19]
  IC50: > 2000 nM
[8]
  Inhibition fold change (1-Treated/Control): 0.03
[8]; Homo sapiens, SU.86.86, 120 hours, Cell Titer Glo, read-out: LGK974 IC50s in cell line proliferation assay
  IC50: > 2000 nM
[9]
  Inhibition fold change (1-Treated/Control): 0.00
[9]; Homo sapiens, PANC-1, 120 hours, Cell Titer Glo, read-out: LGK974 IC50s in cell line proliferation assay
  IC50: > 2000 nM
[10]
  Inhibition fold change (1-Treated/Control): 0.02
[10]; Homo sapiens, PaTu 8902, 120 hours, Cell Titer Glo, read-out: LGK974 IC50s in cell line proliferation assay
  IC50: > 2000 nM
[11]
  Inhibition fold change (1-Treated/Control): 0.06
[11]; [19]
  IC50: > 2000 nM
[12]
  Pathway inhibition: Yes
[13]
  proliferation in soft agar assay: strongly inhibited
[14]
  proliferation in soft agar assay: not
[15]
  proliferation in soft agar assay: strongly inhibited
[16]; YAPC
  Pathway inhibition in Axin2 qPCR assay: Yes
[16]; YAPC cells, 1 μM of LGK974
  mRNA level of AXIN2: decreased
[17]
  colony formation: no sensitivity
[18]; HPAFII (RNF43 mutant), 1 μM LGK974 alone
  colony formation: inhibited
[18]; HPAFII, 300 nM and 1 μM LGK974, crystal violet staining at day 14
  colony formation: inhibits colony formation
[18]; HPAFII, 1 μM LGK974 with daily addition of 10% Wnt3a conditioned media
  colony formation, inhibition with exogenous Wnt3a: partially rescued
